The text below walks through data of US10781211B2, “Spirocycle compounds and methods of making and using same” (Lundbeck La Jolla Research Center, Inc., priority 2016, dated 2020).

Usually IC50 stands for the point on the concentration scale where inhibition reaches its midpoint. The low end stands for inhibition by little substance, the high end for a need for much substance.

The target in assay [1] is T1, FAAH (Mus musculus (Mouse), UniProt O08914). Briefly: In vitro competitive activity-based protein profiling (mouse brain membrane proteome), FAAH band. Particulars: for inhibition at 1 µM: read-out: FAAH % Inh 1 μM (mouse). The format is biochemical. Here is the method: (§1) In Vitro Competitive Activity-Based Protein Profiling.
T1 sequence (O08914 whole entry): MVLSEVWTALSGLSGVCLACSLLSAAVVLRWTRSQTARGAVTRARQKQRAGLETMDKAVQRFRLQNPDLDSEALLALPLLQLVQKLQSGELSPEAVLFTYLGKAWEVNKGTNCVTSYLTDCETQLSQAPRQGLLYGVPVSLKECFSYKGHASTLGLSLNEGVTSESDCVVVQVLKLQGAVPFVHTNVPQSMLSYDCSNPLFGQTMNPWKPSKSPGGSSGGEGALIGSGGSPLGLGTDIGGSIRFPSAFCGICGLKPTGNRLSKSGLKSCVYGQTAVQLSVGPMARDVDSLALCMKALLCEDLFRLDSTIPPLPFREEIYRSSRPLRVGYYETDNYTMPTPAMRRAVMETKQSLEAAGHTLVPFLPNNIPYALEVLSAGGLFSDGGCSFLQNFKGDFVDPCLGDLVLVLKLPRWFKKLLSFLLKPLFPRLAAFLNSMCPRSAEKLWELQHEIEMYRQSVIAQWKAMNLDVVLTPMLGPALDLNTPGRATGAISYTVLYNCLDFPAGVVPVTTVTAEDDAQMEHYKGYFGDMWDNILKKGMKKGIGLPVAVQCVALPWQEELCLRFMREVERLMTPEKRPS
(§2) Proteomes (mouse brain membrane fraction or cell lysates) (50 μL, 1.0 mg/mL total protein concentration) were preincubated with varying concentrations of inhibitors at 37° C. After 30 min, FP-Rh (1.0 μL, 50 μM in DMSO) was added and the mixture was incubated for another 30 min at 37° C. Reactions were quenched with SDS loading buffer (50 μL-4X) and run on SDS-PAGE. Following gel imaging, serine hydrolase activity was determined by measuring fluorescent intensity of gel bands corresponding to MAGL, ABHD6 and FAAH using ImageJ 1.43 u software.

Assay [2] has as its target T2, MAGL (Mus musculus (Mouse), UniProt O35678). Briefly: In vitro competitive activity-based protein profiling (mouse brain membrane proteome), MAGL band. The format is biochemical. As to conditions: for inhibition at 1 µM: read-out: MAGL % Inh 1 μM (mouse). As for the experimental part:
as §1
Proteomes (mouse brain membrane fraction or cell lysates) (50 μL, 1.0 mg/mL total protein concentration) were preincubated with varying concentrations of inhibitors at 37° C. After 30 min, FP-Rh (1.0 μL, 50 μM in DMSO) was added and the mixture was incubated for another 30 min at 37° C. Reactions were quenched with SDS loading buffer (50 μL-4X) and run on SDS-PAGE.

Assay [3] addresses T2, MAGL. Nature of the assay: Mouse brain proteomes from inhibitor treated mice (oral gavage, sacrifice 4 h after administration, ABPP analysis). Type of assay: in vivo. Particulars: 5 mg/kg oral gavage. In outline:
(§3)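 Read-out is % inhibition at 5 mg/kg in brain proteomes profiled by activity-based protein profiling. Inhibitors were dosed orally to wild-type C57Bl/6J mice, with sacrifice at 4 h.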

Assay [4] has as its target T1, FAAH. Briefly: Mouse brain proteomes from inhibitor treated mice (oral gavage, sacrifice 4 h after administration, ABPP analysis), FAAH. The format is in vivo. Particulars: 5 mg/kg oral gavage. In short, it runs like this: as §3
The target of assay [5] is T3, ABHD6 (Mus musculus (Mouse), UniProt Q8R2Y0). Nature of the assay: Mouse brain proteomes from inhibitor treated mice (oral gavage, sacrifice 4 h after administration, ABPP analysis), ABHD6. The format is in vivo. As to conditions: 5 mg/kg oral gavage. In outline: as §3
T3 sequence (Q8R2Y0 whole entry): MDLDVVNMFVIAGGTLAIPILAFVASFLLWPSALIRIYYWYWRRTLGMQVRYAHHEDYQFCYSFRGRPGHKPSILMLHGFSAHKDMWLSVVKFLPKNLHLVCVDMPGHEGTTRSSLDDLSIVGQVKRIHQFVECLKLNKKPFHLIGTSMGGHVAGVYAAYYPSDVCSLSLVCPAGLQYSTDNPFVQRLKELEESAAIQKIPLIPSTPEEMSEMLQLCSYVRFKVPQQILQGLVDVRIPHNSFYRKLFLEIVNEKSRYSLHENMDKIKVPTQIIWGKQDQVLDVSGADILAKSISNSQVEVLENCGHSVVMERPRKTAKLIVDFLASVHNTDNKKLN
Assay [6] concerns the target MAGL (Homo sapiens (Human), UniProt Q99685). Nature of the assay: In vitro competitive activity-based protein profiling (human prefrontal cortex or cell membrane fractions; hMAGL expressed in HEK293T cells). The format is biochemical. As to conditions: human proteome. As for the experimental part: In Vitro Competitive Activity-Based Protein Profiling (Human).
Proteomes (human prefrontal cortex or cell membrane fractions) (50 μL, 1.0-2.0 mg/mL total protein concentration) were preincubated with varying concentrations of inhibitors at 37° C. After 30 min, FP-Rh or JW912 (1.0 μL, 50 μM in DMSO) was added and the mixture was incubated for another 30 min at room temperature. Reactions were quenched with SDS loading buffer (15 μL-4X) and run on SDS-PAGE.
Recombinant Expression of Human MAGL in HEK293T Cells.
Cell lysates were diluted with mock proteomes for use in competitive ABPP experiments.

For assay [7], the target named is T3, ABHD6. Nature of the assay: In vitro competitive activity-based protein profiling (mouse brain membrane proteome), ABHD6 band. Type of assay: biochemical. As to conditions: read-out: ABHD6 % Inh 1 μM (mouse). Here is the method:
as §1, §2

T2 sequence (O35678 whole entry): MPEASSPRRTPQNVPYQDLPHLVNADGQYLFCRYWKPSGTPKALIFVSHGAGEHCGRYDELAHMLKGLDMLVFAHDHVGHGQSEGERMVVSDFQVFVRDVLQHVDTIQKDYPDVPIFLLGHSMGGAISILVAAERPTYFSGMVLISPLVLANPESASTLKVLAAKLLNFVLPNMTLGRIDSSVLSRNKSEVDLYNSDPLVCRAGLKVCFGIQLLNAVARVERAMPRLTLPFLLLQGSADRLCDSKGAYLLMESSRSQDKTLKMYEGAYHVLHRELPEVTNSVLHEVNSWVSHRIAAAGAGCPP
Sequence of MAGL (Homo sapiens (Human), UniProt Q99685) (Q99685 whole entry): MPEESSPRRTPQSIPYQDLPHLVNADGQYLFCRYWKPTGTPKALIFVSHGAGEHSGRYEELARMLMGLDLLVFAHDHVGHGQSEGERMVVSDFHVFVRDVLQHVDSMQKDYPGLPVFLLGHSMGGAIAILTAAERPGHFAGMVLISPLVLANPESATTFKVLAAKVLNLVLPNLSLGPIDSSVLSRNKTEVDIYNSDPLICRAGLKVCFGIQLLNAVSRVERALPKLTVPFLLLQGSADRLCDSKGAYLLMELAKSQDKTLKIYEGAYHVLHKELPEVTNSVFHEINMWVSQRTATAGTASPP

As to `CC(=O)N1CCCc2cccc(CN3CCC4(CCN(C(=O)OC(C(F)(F)F)C(F)(F)F)CC4)C3)c21` [Example 70, 1,1,1,3,3,3-Hexafluoropropan-2-yl 2-((1-acetyl-1,2,3,4-tetrahydroquinolin-8-yl)methyl)-2,8-diazaspiro[4.5]decane-8-carboxylate], the IC50 on FAAH [1] was over 1000 nM; at MAGL [2], under 100 nM. Moreover, the “MAGL % Inh 5 mg/kg (mouse)” value at MAGL [3] is on record as “### (### is ≥ 75%)”. The “FAAH % Inh 5 mg/kg (mouse)” value at FAAH [4] is on record as “# (# is < 25%)”. Also, the “ABHD6 % Inh 5 mg/kg (mouse)” value at ABHD6 [5] is recorded as “### (### is ≥ 75%)”.

As for `O=C(O)[C@@H]1CCCN(c2cc(C(F)(F)F)ccc2CN2CCCC23CCN(C(=O)OC(C(F)(F)F)C(F)(F)F)CC3)C1` [Example 214], the “MAGL % Inh 5 mg/kg (mouse)” value at MAGL [3] is “### (### is ≥ 75%)”. In addition, the “FAAH % Inh 5 mg/kg (mouse)” value on FAAH [4] is recorded as “# (# is < 25%)”. Moreover, at ABHD6 [5], the “ABHD6 % Inh 5 mg/kg (mouse)” value is reported as “# (# is < 25%)”.

In the case of `O=C(O)[C@H]1CCCN(c2cc(C(F)(F)F)ccc2CN2CCCC23CCN(C(=O)OC(C(F)(F)F)C(F)(F)F)CC3)C1` [Example 217], the “MAGL % Inh 5 mg/kg (mouse)” value at MAGL [3] is on record as “### (### is ≥ 75%)”. Moreover, the “FAAH % Inh 5 mg/kg (mouse)” value on FAAH [4] was “# (# is < 25%)”. The “ABHD6 % Inh 5 mg/kg (mouse)” value on ABHD6 [5] is listed as “# (# is < 25%)”.

On to `CC1(C(=O)O)CCCN(c2cc(CN3CCCC34CCN(C(=O)OC(C(F)(F)F)C(F)(F)F)CC4)cc(C(F)(F)F)c2)C1` (stereo not drawn) [Example 221], for which the “MAGL % Inh 5 mg/kg (mouse)” value at MAGL [3] is “### (### is ≥ 75%)”. The “FAAH % Inh 5 mg/kg (mouse)” value at FAAH [4] was “# (# is < 25%)”. Further, on ABHD6 [5], the “ABHD6 % Inh 5 mg/kg (mouse)” value was “# (# is < 25%)”.

For `O=C(O)C1CCCCN1c1cc(CN2CCCC23CCN(C(=O)OC(C(F)(F)F)C(F)(F)F)CC3)cc(C(F)(F)F)c1` (stereo not drawn) [Example 226], the inhibition at 1 µM on FAAH [1] was under 25%; on MAGL [2] it was over 75%; on ABHD6 [7], under 25%. Moreover, at MAGL [6], the concentration for half-maximal inhibition (IC50) was under 100 nM. In addition, on MAGL [3], the “MAGL % Inh 5 mg/kg (mouse)” value is “### (### is ≥ 75%)”. On FAAH [4], the “FAAH % Inh 5 mg/kg (mouse)” value is on record as “# (# is < 25%)”. On ABHD6 [5], the “ABHD6 % Inh 5 mg/kg (mouse)” value is “# (# is < 25%)”.

`CC1(C(=O)O)CCN(c2cc(CN3CCCC34CCN(C(=O)OC(C(F)(F)F)C(F)(F)F)CC4)cc(C(F)(F)F)c2)C1` (stereo not drawn) [Example 231]: the inhibition at 1 µM at FAAH [1] was under 25%; at MAGL [2] it was over 75%; on ABHD6 [7], under 25%. The same molecule gave an IC50 at MAGL [6] of under 100 nM.

Take `O=C(O)C1CCN(c2cc(F)ccc2CN2CCCC23CCN(C(=O)OC(C(F)(F)F)C(F)(F)F)CC3)CC1` [Example 235]: the inhibition at 1 µM on FAAH [1] and on ABHD6 [7] was under 25% in each case.

Regarding `O=C(O)C1CCN(c2cc(F)cc(CN3CCCC34CCN(C(=O)OC(C(F)(F)F)C(F)(F)F)CC4)c2)CC1` [Example 236], on MAGL [3], the “MAGL % Inh 5 mg/kg (mouse)” value is given as “### (### is ≥ 75%)”. Besides, the “FAAH % Inh 5 mg/kg (mouse)” value at FAAH [4] is “# (# is < 25%)”. The “ABHD6 % Inh 5 mg/kg (mouse)” value at ABHD6 [5] is “# (# is < 25%)”.

Consider `O=C(O)C1CCN(Cc2cc(C(F)(F)F)ccc2CN2CCCC23CCN(C(=O)OC(C(F)(F)F)C(F)(F)F)CC3)CC1` [Example 238], for which the “MAGL % Inh 5 mg/kg (mouse)” value on MAGL [3] was “### (### is ≥ 75%)”. At FAAH [4], the “FAAH % Inh 5 mg/kg (mouse)” value was “# (# is < 25%)”. The “ABHD6 % Inh 5 mg/kg (mouse)” value on ABHD6 [5] is on record as “# (# is < 25%)”.

On to `O=C(O)C1CCN(c2cc(S(F)(F)(F)(F)F)ccc2CN2CCCC23CCN(C(=O)OC(C(F)(F)F)C(F)(F)F)CC3)CC1` [Example 240], for which the “MAGL % Inh 5 mg/kg (mouse)” value on MAGL [3] is “### (### is ≥ 75%)”. Besides, the “FAAH % Inh 5 mg/kg (mouse)” value on FAAH [4] is recorded as “# (# is < 25%)”. Moreover, the “ABHD6 % Inh 5 mg/kg (mouse)” value on ABHD6 [5] was “# (# is < 25%)”.

As for `O=C(O)C1CCN(Cc2cc(CN3CCCC34CCN(C(=O)OC(C(F)(F)F)C(F)(F)F)CC4)cc(C(F)(F)F)c2)CC1` [Example 244], the “MAGL % Inh 5 mg/kg (mouse)” value on MAGL [3] is reported as “### (### is ≥ 75%)”. In addition, the “FAAH % Inh 5 mg/kg (mouse)” value on FAAH [4] is “# (# is < 25%)”. Besides, the “ABHD6 % Inh 5 mg/kg (mouse)” value on ABHD6 [5] is on record as “# (# is < 25%)”.

`O=C(O)C1CCN(c2cc(OC(F)(F)F)ccc2CN2CCCC23CCN(C(=O)OC(C(F)(F)F)C(F)(F)F)CC3)CC1` [Example 248]: on MAGL [3], the “MAGL % Inh 5 mg/kg (mouse)” value is “### (### is ≥ 75%)”. Moreover, the “FAAH % Inh 5 mg/kg (mouse)” value on FAAH [4] is on record as “# (# is < 25%)”. Also, on ABHD6 [5], the “ABHD6 % Inh 5 mg/kg (mouse)” value was “# (# is < 25%)”.

In the case of `CC1(C(=O)O)CN(c2cc(C(F)(F)F)ccc2CN2CCC3(CCN(C(=O)OC(C(F)(F)F)C(F)(F)F)CC3)C2)CCO1` (stereo not drawn) [Example 256], the “MAGL % Inh 5 mg/kg (mouse)” value on MAGL [3] is “# (# is < 25%)”. Besides, at FAAH [4], the “FAAH % Inh 5 mg/kg (mouse)” value is on record as “# (# is < 25%)”. Also, the “ABHD6 % Inh 5 mg/kg (mouse)” value at ABHD6 [5] is listed as “# (# is < 25%)”.

`CS(=O)(=O)C1CCN(c2cc(C(F)(F)F)ccc2CN2CCCC23CCN(C(=O)OC(C(F)(F)F)C(F)(F)F)CC3)CC1` [Example 267]: on MAGL [3], the “MAGL % Inh 5 mg/kg (mouse)” value is “# (# is < 25%)”. The “FAAH % Inh 5 mg/kg (mouse)” value on FAAH [4] was “# (# is < 25%)”. Further, the “ABHD6 % Inh 5 mg/kg (mouse)” value on ABHD6 [5] was “# (# is < 25%)”.

As to `O=C(O)C1CCN(Cc2cc(Cl)cc(CN3CCCC34CCN(C(=O)OC(C(F)(F)F)C(F)(F)F)CC4)c2)C1` (stereo not drawn) [Example 272], the “MAGL % Inh 5 mg/kg (mouse)” value at MAGL [3] is “### (### is ≥ 75%)”. For the same molecule, the “FAAH % Inh 5 mg/kg (mouse)” value at FAAH [4] is listed as “# (# is < 25%)”. In addition, at ABHD6 [5], the “ABHD6 % Inh 5 mg/kg (mouse)” value is recorded as “# (# is < 25%)”.

For `O=C(O)[C@H]1CCCCN1c1cc(CN2CCCC23CCN(C(=O)OC(C(F)(F)F)C(F)(F)F)CC3)cc(C(F)(F)F)c1` [Example 274], the “MAGL % Inh 5 mg/kg (mouse)” value at MAGL [3] is recorded as “### (### is ≥ 75%)”. Also, at FAAH [4], the “FAAH % Inh 5 mg/kg (mouse)” value is “# (# is < 25%)”. Further, the “ABHD6 % Inh 5 mg/kg (mouse)” value on ABHD6 [5] is “# (# is < 25%)”.

As to `O=C(O)C1CCN(C(=O)c2cc(C(F)(F)F)ccc2CN2CCCC23CCN(C(=O)OC(C(F)(F)F)C(F)(F)F)CC3)CC1` [Example 281], at MAGL [3], the “MAGL % Inh 5 mg/kg (mouse)” value is “# (# is < 25%)”. Further, the “FAAH % Inh 5 mg/kg (mouse)” value at FAAH [4] is listed as “# (# is < 25%)”. Further, on ABHD6 [5], the “ABHD6 % Inh 5 mg/kg (mouse)” value is listed as “# (# is < 25%)”.
